Measured values published in publication PMC5733478, “A Non-imaging High Throughput Approach to Chemical Library Screening at the Unmodified Adenosine-A3 Receptor in Living Cells” (Frontiers in Pharmacology, 2017).
Where two headings read alike, the source gives them in different places. Values belong to the compound of their own block, whether it stands above or below them.

Legend:
human A3AR [1] = molecular target: T1, human A3AR (Homo sapiens, UniProt P0DMS8); assay: HTS (PHERAstar FS) fluorescent ligand competition binding in live CHO cells, 5 nM AV039 tracer
T1 construct: expressed in transfected cells
T1 sequence (P0DMS8 1-318): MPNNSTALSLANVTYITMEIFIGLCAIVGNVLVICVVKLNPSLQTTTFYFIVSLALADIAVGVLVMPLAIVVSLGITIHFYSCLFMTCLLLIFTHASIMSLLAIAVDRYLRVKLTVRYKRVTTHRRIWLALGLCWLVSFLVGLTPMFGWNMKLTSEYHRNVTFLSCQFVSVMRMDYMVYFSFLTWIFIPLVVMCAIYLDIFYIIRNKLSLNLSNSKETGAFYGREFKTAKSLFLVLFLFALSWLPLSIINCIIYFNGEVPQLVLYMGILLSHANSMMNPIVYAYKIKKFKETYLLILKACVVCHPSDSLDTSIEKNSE
Protocol: (§1) CHO cells stably expressing the A3AR, A1AR, β1AR or β2AR were seeded into the central 60 wells (for high content confocal analysis) or every well (high throughput analysis) of a 96-well clear-bottomed, black-walled plate (Greiner BioOne) and grown to confluency. […] Cells were incubated for 1h at 37°C/5% CO2. Buffer was then removed from each well, cells washed once in HBSS and fresh HBSS added at room temperature. Plates were then immediately subjected to high content or HTS analysis as detailed below.
(§2) High throughput analysis was performed using a PHERAstar FS plate reader (BMG Technologies). […] Optimal focal height was determined automatically and total fluorescence intensity was assessed by taking 81 reads per well.
(§3) Competition binding curves were fitted to the following equation using GraphPad Prism 5 (GraphPad Software): […]
(§4) where [L] is the concentration and KD is the equilibrium dissociation constant of the fluorescent ligand.

human A3AR [2] = molecular target: T1, human A3AR; assay: LOPAC library primary screen: single concentration (10 μM) inhibition of 25 nM CA200645 binding, PHERAstar FS
A3AR = settings: ref Stoddart et al. ([2012]); cited from earlier work
β2AR = molecular target: T2, β2AR (Homo sapiens, UniProt P07550); assay: HTS (PHERAstar FS) fluorescent ligand competition binding in live CHO cells, 10 nM BODIPY-TMR-CGP tracer; settings: for β2AR % Total binding at 10 μM: 10 μM compound, 10 nM BODIPY-TMR-CGP, mean ± SEM, n=3
T2 construct: expressed in transfected cells
Protocol: as §1, §2, §3, §4

human A3AR [3] = molecular target: T1, human A3AR; assay: HTS (PHERAstar FS) fluorescent ligand competition binding in live CHO cells, 25 nM CA200645 tracer; settings: for displacement of CA200645 binding at the A3AR in full inhibition curves: secondary screen of top ten hits, highest concentration 10 μM, affinity not determinable
Protocol: as §1, §2, §3, §4

human A1AR = molecular target: T3, human A1AR (Homo sapiens, UniProt P30542); assay: as above; settings: secondary screen of LOPAC hits; for Ki: 25 nM CA200645, mean ± SEM, n=3, read-out: A1AR pKi (selected LOPAC hits) (converted)
T3 construct: expressed in transfected cells
T3 sequence (P30542 1-326): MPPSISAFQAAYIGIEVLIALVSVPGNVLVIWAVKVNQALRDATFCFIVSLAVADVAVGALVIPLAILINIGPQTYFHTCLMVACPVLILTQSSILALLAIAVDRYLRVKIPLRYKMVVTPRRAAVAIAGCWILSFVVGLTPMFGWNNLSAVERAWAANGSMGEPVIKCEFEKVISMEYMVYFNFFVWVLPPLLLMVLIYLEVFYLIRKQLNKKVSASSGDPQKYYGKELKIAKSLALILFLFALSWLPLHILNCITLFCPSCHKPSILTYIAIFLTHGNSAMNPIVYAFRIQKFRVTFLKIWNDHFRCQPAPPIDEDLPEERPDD
Protocol: as §1, §2, §3, §4

A1AR = settings: cited from earlier work
[4] = % of control wells (1% DMSO and 25 nM CA200645), compounds at 10 µM, whole live cells expressing the A3AR, mean ± SD, three experiments in duplicate
[5] = secondary screen of LOPAC hits, full inhibition curves, 25 nM CA200645, mean ± SEM, n=3, read-out: A3AR pKi (selected LOPAC hits) (converted)

T2 sequence (P07550 whole entry): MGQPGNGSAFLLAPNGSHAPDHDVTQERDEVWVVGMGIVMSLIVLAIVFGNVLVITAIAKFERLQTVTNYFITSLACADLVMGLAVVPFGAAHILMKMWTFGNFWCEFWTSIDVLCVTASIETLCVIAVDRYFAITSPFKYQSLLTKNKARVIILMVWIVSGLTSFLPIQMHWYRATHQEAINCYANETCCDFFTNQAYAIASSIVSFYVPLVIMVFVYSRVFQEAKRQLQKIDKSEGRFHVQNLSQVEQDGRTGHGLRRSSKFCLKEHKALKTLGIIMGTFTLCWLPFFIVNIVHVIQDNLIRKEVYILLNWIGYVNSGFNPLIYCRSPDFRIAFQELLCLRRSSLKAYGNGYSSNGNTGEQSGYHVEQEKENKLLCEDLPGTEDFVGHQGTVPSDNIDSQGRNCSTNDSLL

Compound: Nc1nc2ccc(Cl)cc2c2nc(-c3ccco3)nn12 [CGS15943]
Ki (human A3AR [1]): 0.0123 µM
% Total CA200645 binding (human A3AR [2]): 30.0 ± 3.0%
Literature values (A3AR) (A3AR): 8.18
β2AR % Total binding at 10 μM (β2AR): 115.4 ± 5.0%
effect on binding of BODIPY-TMR-CGP at the β2AR (β2AR; secondary screen of LOPAC hits): no effect
Ki (human A3AR [3]): 0.0123 µM

% 25 nM CA200645 binding (human A3AR [2]; [4]): 24.6 ± 5.8%
β2AR % Total binding at 10 μM (β2AR): 95.8 ± 5.5%
Ki (human A3AR [3]; [5]): 0.372 µM
Ki (human A1AR): 0.275 µM
Compound: Oc1ccc(/C=C/c2ccc(/C=C/c3ccc(O)cc3)c(Br)c2)cc1 [K114]

Compound: O=C(Cc1ccccc1)Nc1nc2ccc(Cl)cc2c2nc(-c3ccco3)nn12 [MRS1220]
Literature values (A1AR) (A1AR; A1AR, ref Stoddart et al. ([2012])): 7.14

Compound: Cn1c(=O)c(-c2c(Cl)cccc2Cl)cc2cnc(Nc3ccc(N4CCOCC4)cc3)nc21 [PD173952, reference compound]
% 25 nM CA200645 binding (human A3AR [2]): 25.6 ± 5.3%
displacement of CA200645 binding at the A3AR in full inhibition curves (human A3AR [3]): only displaced the binding of CA200645 at the highest concentration tested

% 25 nM CA200645 binding (human A3AR [2]; [4]): 26.5 ± 2.0%
β2AR % Total binding at 10 μM (β2AR): 102.7 ± 5.1%
Ki (human A3AR [3]; [5]): 0.741 µM
Ki (human A1AR): 0.912 µM
Compound: CC1=C(/C=C/C(C)=C/C=C/C(C)=C/C(=O)Nc2ccc(O)cc2)C(C)(C)CCC1 [Retinoic acid p-hydroxyanilide]

Compound: CN(C)S(=O)(=O)c1ccc2c(c1)/C(=C/c1cc3c([nH]1)CCCC3)C(=O)N2 [SU 6656]
% 25 nM CA200645 binding (human A3AR [2]): 17.3 ± 1.8%
β2AR % Total binding at 10 μM (β2AR): 128.4 ± 18.4%
Ki (human A3AR [3]; [5]): 0.676 µM
inhibition of CA200645 binding at the A1AR (human A1AR): only inhibited binding at the highest concentration tested

Compound: Nc1nc(NCCc2ccc(O)cc2)nc2nc(-c3ccco3)nn12 [ZM241385]
Ki (human A3AR [1]; CHO cells expressing A3AR, 5 nM AV039, PHERAstar HTS assay, mean ± SEM, read-out: pKi A3AR AV039 (converted)): 0.479 µM
Literature values (A3AR) (A3AR): 6.74
Ki (human A3AR [3]; CHO cells expressing A3AR, 25 nM CA200645, PHERAstar HTS assay, mean ± SEM, read-out: pKi A3AR CA200645 (converted)): 0.234 µM

Compound: O=C1Cc2c([nH]c3ccc(Br)cc23)-c2ccccc2N1 [kenpaullone, reference compound]
% 25 nM CA200645 binding (human A3AR [2]): 30.6 ± 6.6%
displacement of CA200645 binding at the A3AR in full inhibition curves (human A3AR [3]): only displaced the binding of CA200645 at the highest concentration tested

Compound: O=c1c(O)c(-c2ccc(O)c(O)c2)oc2cc(O)cc(O)c12 [quercetin]
displacement of CA200645 binding at the A3AR in full inhibition curves (human A3AR [3]): only displaced the binding of CA200645 at the highest concentration tested

Compound: CC(=O)c1c(O)c(C)c(O)c(Cc2c(O)c3c(c(C(=O)/C=C/c4ccccc4)c2O)OC(C)(C)C=C3)c1O [rottlerin, reference compound]
% 25 nM CA200645 binding (human A3AR [2]): 22.8 ± 1.4%
displacement of CA200645 binding at the A3AR in full inhibition curves (human A3AR [3]): only displaced the binding of CA200645 at the highest concentration tested

Compound: CA200645
Kd (A1AR; ref Stoddart et al., [2012], read-out: KD of fluorescent ligand at the A1AR): 0.011 µM
